Assay results taken from the NIST ThermoML archive (doi:10.1021/acs.jced.8b00132).
Several values for one entry are separate records, joined by “and”; a condition that tells them apart may be missing. Identical values can stand only once. Numbers after ± are expanded uncertainties.

Conditions: Gas

O=C(C(F)(F)C(F)(F)F)C(F)(C(F)(F)F)C(F)(F)F [dodecafluoro-2-methylpentan-3-one]
Conditions	thermal conductivity
473.94 K, 607 kPa, transient hot wire	0.02517 ± 0.0015 W/m/K
473.94 K, 608 kPa, transient hot wire	0.02532 ± 0.0016 W/m/K
473.94 K, 1476 kPa, transient hot wire	0.02574 ± 0.00085 W/m/K
473.96 K, 1476 kPa, transient hot wire	0.02582 ± 0.00085 W/m/K
473.98 K, 426 kPa, transient hot wire	0.02562 ± 0.0016 W/m/K
473.99 K, 423 kPa, transient hot wire	0.02558 ± 0.0016 W/m/K
474.04 K, 842 kPa, transient hot wire	0.02513 ± 0.0015 W/m/K and 0.02512 ± 0.0015 W/m/K
474.09 K, 607 kPa, transient hot wire	0.02539 ± 0.0016 W/m/K and 0.02526 ± 0.0015 W/m/K
474.16 K, 420 kPa, transient hot wire	0.02565 ± 0.0016 W/m/K
474.16 K, 421 kPa, transient hot wire	0.02567 ± 0.0016 W/m/K
474.19 K, 842 kPa, transient hot wire	0.02519 ± 0.0015 W/m/K
474.2 K, 841 kPa, transient hot wire	0.0252 ± 0.0015 W/m/K
474.27 K, 606 kPa, transient hot wire	0.02536 ± 0.0016 W/m/K
474.28 K, 606 kPa, transient hot wire	0.02535 ± 0.0016 W/m/K
474.31 K, 419 kPa, transient hot wire	0.02566 ± 0.0016 W/m/K
474.32 K, 419 kPa, transient hot wire	0.0257 ± 0.0016 W/m/K
499.37 K, 646 kPa, hot wire	0.02778 ± 0.0013 W/m/K
499.37 K, 647 kPa, hot wire	0.02768 ± 0.0013 W/m/K
499.4 K, 421 kPa, hot wire	0.02708 ± 0.0013 W/m/K
499.41 K, 221 kPa, hot wire	0.02654 ± 0.0013 W/m/K
499.41 K, 422 kPa, hot wire	0.0269 ± 0.0013 W/m/K
499.42 K, 220 kPa, hot wire	0.02629 ± 0.0012 W/m/K
499.45 K, 60 kPa, hot wire	0.02624 ± 0.0012 W/m/K
499.45 K, 645 kPa, hot wire	0.02749 ± 0.0013 W/m/K and 0.02782 ± 0.0013 W/m/K
499.47 K, 60 kPa, hot wire	0.02576 ± 0.0012 W/m/K
499.49 K, 419 kPa, hot wire	0.0267 ± 0.0013 W/m/K
499.5 K, 419 kPa, hot wire	0.02667 ± 0.0013 W/m/K
499.5 K, 50295 kPa, transient hot wire	0.06261 ± 0.0016 W/m/K
499.51 K, 219 kPa, hot wire	0.02641 ± 0.0012 W/m/K
499.51 K, 220 kPa, hot wire	0.02635 ± 0.0012 W/m/K
499.52 K, 4853 kPa, transient hot wire	0.03589 ± 0.00085 W/m/K and 0.03595 ± 0.00086 W/m/K
499.52 K, 50304 kPa, transient hot wire	0.06215 ± 0.0016 W/m/K
499.53 K, 644 kPa, hot wire	0.02758 ± 0.0013 W/m/K
499.53 K, 2128 kPa, transient hot wire	0.02828 ± 0.0017 W/m/K
499.54 K, 61 kPa, hot wire	0.02593 ± 0.0012 W/m/K
499.55 K, 61 kPa, hot wire	0.02598 ± 0.0012 W/m/K
499.55 K, 644 kPa, hot wire	0.02734 ± 0.0013 W/m/K
499.56 K, 419 kPa, hot wire	0.02715 ± 0.0013 W/m/K
499.56 K, 50302 kPa, transient hot wire	0.06239 ± 0.0016 W/m/K
499.57 K, 419 kPa, hot wire	0.02691 ± 0.0013 W/m/K
499.57 K, 4325 kPa, transient hot wire	0.0351 ± 0.0022 W/m/K
499.57 K, 50305 kPa, transient hot wire	0.06236 ± 0.0016 W/m/K
499.58 K, 3937 kPa, transient hot wire	0.03408 ± 0.0021 W/m/K
499.58 K, 4853 kPa, transient hot wire	0.03611 ± 0.00086 W/m/K
499.59 K, 50256 kPa, transient hot wire	0.06271 ± 0.0016 W/m/K
499.59 K, 50258 kPa, transient hot wire	0.06238 ± 0.0016 W/m/K
499.6 K, 218 kPa, hot wire	0.02625 ± 0.0012 W/m/K
499.6 K, 219 kPa, hot wire	0.0263 ± 0.0012 W/m/K
499.6 K, 3614 kPa, transient hot wire	0.03311 ± 0.002 W/m/K
499.6 K, 4853 kPa, transient hot wire	0.036 ± 0.00086 W/m/K
499.61 K, 35693 kPa, transient hot wire	0.05695 ± 0.0014 W/m/K
499.61 K, 50280 kPa, transient hot wire	0.06265 ± 0.0016 W/m/K
499.62 K, 61 kPa, hot wire	0.02606 ± 0.0012 W/m/K and 0.02605 ± 0.0012 W/m/K
499.62 K, 5588 kPa, transient hot wire	0.03699 ± 0.00088 W/m/K
499.62 K, 35669 kPa, transient hot wire	0.057 ± 0.0014 W/m/K
499.62 K, 35696 kPa, transient hot wire	0.05672 ± 0.0014 W/m/K
499.63 K, 643 kPa, hot wire	0.02745 ± 0.0013 W/m/K
499.63 K, 3615 kPa, transient hot wire	0.03333 ± 0.0021 W/m/K
499.63 K, 4324 kPa, transient hot wire	0.03525 ± 0.0022 W/m/K
499.63 K, 5589 kPa, transient hot wire	0.03717 ± 0.00088 W/m/K
499.63 K, 35672 kPa, transient hot wire	0.05682 ± 0.0014 W/m/K
499.63 K, 50307 kPa, transient hot wire	0.06251 ± 0.0016 W/m/K
499.64 K, 644 kPa, hot wire	0.02725 ± 0.0013 W/m/K
499.64 K, 1595 kPa, transient hot wire	0.0274 ± 0.0009 W/m/K
499.64 K, 3289 kPa, transient hot wire	0.03215 ± 0.002 W/m/K
499.64 K, 4325 kPa, transient hot wire	0.03518 ± 0.0022 W/m/K
499.64 K, 50259 kPa, transient hot wire	0.06245 ± 0.0016 W/m/K
499.65 K, 419 kPa, hot wire	0.02725 ± 0.0013 W/m/K
499.65 K, 1595 kPa, transient hot wire	0.02712 ± 0.00089 W/m/K
499.65 K, 2128 kPa, transient hot wire	0.02826 ± 0.0017 W/m/K and 0.0282 ± 0.0017 W/m/K
499.65 K, 4853 kPa, transient hot wire	0.03633 ± 0.00086 W/m/K
499.65 K, 4854 kPa, transient hot wire	0.03629 ± 0.00086 W/m/K
499.66 K, 418 kPa, hot wire	0.02719 ± 0.0013 W/m/K
499.66 K, 3937 kPa, transient hot wire	0.03435 ± 0.0021 W/m/K and 0.03413 ± 0.0021 W/m/K
499.67 K, 2953 kPa, transient hot wire	0.0308 ± 0.0019 W/m/K
499.67 K, 35694 kPa, transient hot wire	0.05685 ± 0.0014 W/m/K
499.68 K, 50260 kPa, transient hot wire	0.06229 ± 0.0016 W/m/K
499.69 K, 218 kPa, hot wire	0.02623 ± 0.0012 W/m/K and 0.0264 ± 0.0012 W/m/K
499.69 K, 5590 kPa, transient hot wire	0.03719 ± 0.00089 W/m/K
499.69 K, 35675 kPa, transient hot wire	0.05669 ± 0.0014 W/m/K
499.69 K, 35681 kPa, transient hot wire	0.05715 ± 0.0014 W/m/K
499.69 K, 50252 kPa, transient hot wire	0.06264 ± 0.0016 W/m/K
499.7 K, 60 kPa, hot wire	0.02639 ± 0.0012 W/m/K and 0.0261 ± 0.0012 W/m/K
499.7 K, 2953 kPa, transient hot wire	0.03112 ± 0.0019 W/m/K
